Reference: patent US4629786A, “C-20- and C-23 modified macrolide derivatives” (Eli Lilly and Company, priority 1984, dated 1986)
Values after ≈ are worked out from the molar mass of the structure shown. Like-named read-outs stand apart in the source and are kept apart here.

How the values were obtained:
[1] = tested on: Klebsiella pneumoniae X26; experiment: MIC, standard agar-dilution assay, Klebsiella pneumoniae X26; assay type: cell-based
Protocol: (§1) Certain of the derivatives are active against some gram-negative bacteria, such as Pasteurella species. The MIC's in Table II were determined by standard agar-dilution assays.

[2] = tested on: Streptococcus pneumoniae Park I; experiment: MIC, standard agar-dilution assay, Streptococcus pneumoniae Park I; assay type: cell-based
Protocol: as §1

[3] = tested on: Streptococcus pyogenes C203; experiment: protection of mice experimentally infected with S. pyogenes C203; assay type: in vivo; settings: mg/kg × 2, doses given 1 and 4 hours postinfection
Protocol: Some of the derivatives of this invention have shown in vivo antimicrobial activity against experimentally-induced infections in laboratory animals. When two doses of test compound were administered to mice experimentally infected with S. pyogenes C203, the activity observed was measured as an ED50 value [effective dose in mg/kg to protect 50% of the test animals: see Warren Wick, et al., J. Bacteriol. 81, 233-235 (1961)].
^a mg/kg × 2; doses given 1 and 4 hours postinfection

[4] = tested on: Staphylococcus aureus V41; experiment: MIC, standard agar-dilution assay, Staphylococcus aureus V41; assay type: cell-based
Protocol: as §1

[5] = tested on: Klebsiella pneumoniae KAE; experiment: MIC, standard agar-dilution assay, Klebsiella pneumoniae KAE; assay type: cell-based
Protocol: as §1

[6] = tested on: Staphylococcus epidermidis EPI2; experiment: MIC, standard agar-dilution assay, Staphylococcus epidermidis EPI2; assay type: cell-based
Protocol: as §1

Escherichia coli EC14 = experiment: MIC, standard agar-dilution assay, Escherichia coli EC14; assay type: cell-based
Protocol: as §1

[7] = tested on: Haemophilus influenzae C.L.; experiment: MIC, standard agar-dilution assay, Haemophilus influenzae C.L.; assay type: cell-based
Protocol: as §1

[8] = tested on: Staphylococcus aureus S13E; experiment: MIC, standard agar-dilution assay, Staphylococcus aureus S13E; assay type: cell-based
Protocol: as §1

[9] = tested on: Haemophilus influenzae 76; experiment: MIC, standard agar-dilution assay, Haemophilus influenzae 76; assay type: cell-based
Protocol: as §1

[10] = tested on: Streptococcus pyogenes C203; experiment: MIC, standard agar-dilution assay, Streptococcus pyogenes C203; assay type: cell-based
Protocol: as §1

[11] = tested on: Staphylococcus epidermidis EPI1; experiment: MIC, standard agar-dilution assay, Staphylococcus epidermidis EPI1; assay type: cell-based
Protocol: as §1

Escherichia coli TEM = experiment: MIC, standard agar-dilution assay, Escherichia coli TEM; assay type: cell-based
Protocol: as §1

[12] = tested on: Streptococcus pneumoniae Group D X9960; experiment: MIC, standard agar-dilution assay, Streptococcus pneumoniae Group D X9960; assay type: cell-based
Protocol: as §1

[13] = tested on: Staphylococcus aureus X400; experiment: MIC, standard agar-dilution assay, Staphylococcus aureus X400; assay type: cell-based
Protocol: as §1

[14] = tested on: Staphylococcus aureus X1.1; experiment: MIC, standard agar-dilution assay, Staphylococcus aureus X1.1; assay type: cell-based
Protocol: as §1

[15] = tested on: Streptococcus pneumoniae Group D X66; experiment: MIC, standard agar-dilution assay, Streptococcus pneumoniae Group D X66; assay type: cell-based
Protocol: as §1

[16] = Streptococcus pneumoniae Park I, read-out: MIC
[17] = Streptococcus pneumoniae Group D X9960, read-out: MIC
[18] = Klebsiella pneumoniae KAE, read-out: MIC
[19] = Staphylococcus aureus X400, Methicillin-resistant strain, read-out: MIC
[20] = Haemophilus influenzae C.L., Ampicillin-sensitive strain, read-out: MIC
[21] = Haemophilus influenzae 76, Ampicillin-resistant strain, read-out: MIC
[22] = Escherichia coli TEM, read-out: MIC
[23] = Staphylococcus aureus V41, Penicillin-resistant strain, read-out: MIC

## CCC1OC(=O)CC(O)C(C)C(OC2OC(C)C(O)C(N(C)C)C2O)C(CCN2CCC(c3ccccc3)CC2)CC(C)C(=O)C=CC(C)=CC1CO (stereo not shown) [Compound 4, 20-DH-DO-20-(4-Phenylpiperidin-1-yl)-OMT]
[1]
  MIC: 2 µg/mL (≈ 2.69 µM)
[2]; [16]
  MIC: 0.25 µg/mL (≈ 0.336 µM)
[3]; C203, Oral
  ED50: > 100 mg/kg
[3]; C203, sc, Subcutaneous
  ED50: > 10 mg/kg
[4]; Staphylococcus aureus, V41
  MIC: 2 µg/mL (≈ 2.69 µM)
[5]; Klebsiella pneumoniae
  MIC: 64 µg/mL (≈ 86.1 µM)
[6]
  MIC: 0.5 µg/mL (≈ 0.673 µM)
Escherichia coli EC14; read-out: MIC
  MIC: 32 µg/mL (≈ 43.1 µM)
[7]; Haemophilus influenzae
  MIC: 8 µg/mL (≈ 10.8 µM)
[8]
  MIC: 2 µg/mL (≈ 2.69 µM)
[9]; Haemophilus influenzae, 76
  MIC: 8 µg/mL (≈ 10.8 µM)
[10]
  MIC: 2 µg/mL (≈ 2.69 µM)
[11]; read-out: MIC
  MIC: 1 µg/mL (≈ 1.35 µM)
Escherichia coli TEM; Escherichia coli
  MIC: 8 µg/mL (≈ 10.8 µM)
[12]; [17]
  MIC: 4 µg/mL (≈ 5.38 µM)
[13]; Staphylococcus aureus, X400
  MIC: 2 µg/mL (≈ 2.69 µM)
[14]
  MIC: 2 µg/mL (≈ 2.69 µM)
[15]; Streptococcus pneumoniae
  MIC: 2 µg/mL (≈ 2.69 µM)

## CCC1OC(=O)CC(O)C(C)C(OC2OC(C)C(O)C(N(C)C)C2O)C(CCN2CCCCCC2)CC(C)C(=O)C=CC(C)=CC1CO (stereo not shown) [Compound 5]
[1]; read-out: MIC
  MIC: 4 µg/mL (≈ 5.87 µM)
[3]; C203, Oral
  ED50: > 100 mg/kg
[3]; C203, sc, Subcutaneous
  ED50: 7.8 mg/kg
[4]; Staphylococcus aureus, V41
  MIC: 4 µg/mL (≈ 5.87 µM)
[5]; [18]
  MIC: 128 µg/mL (≈ 188 µM)
[6]
  MIC: 2 µg/mL (≈ 2.94 µM)
Escherichia coli EC14
  MIC: 128 µg/mL (≈ 188 µM)
[7]; Haemophilus influenzae
  MIC: 16 µg/mL (≈ 23.5 µM)
[8]
  MIC: 4 µg/mL (≈ 5.87 µM)
[9]; Haemophilus influenzae, 76
  MIC: 16 µg/mL (≈ 23.5 µM)
[10]
  MIC: 0.5 µg/mL (≈ 0.734 µM)
[11]; read-out: MIC
  MIC: 2 µg/mL (≈ 2.94 µM)
Escherichia coli TEM; Escherichia coli
  MIC: 16 µg/mL (≈ 23.5 µM)
[12]; Streptococcus pneumoniae
  MIC: 16 µg/mL (≈ 23.5 µM)
[13]; [19]
  MIC: 8 µg/mL (≈ 11.7 µM)
[14]
  MIC: 4 µg/mL (≈ 5.87 µM)
[15]; Streptococcus pneumoniae
  MIC: 16 µg/mL (≈ 23.5 µM)

## CCC1OC(=O)CC(O)C(C)C(OC2OC(C)C(O)C(N(C)C)C2O)C(CCN2CC3CCC(CC3)C2)CC(C)C(=O)C=CC(C)=CC1CO (stereo not shown) [Compound 13, 20-DH-DO-20-[3-Azabicyclo(3.2.2)-nonan-3-yl]-OMT]
physchem; Titration pKa value (first)
  pKa: 7.7
physchem; Titration pKa value (second)
  pKa: 9.3
[1]; read-out: MIC
  MIC: 2 µg/mL (≈ 2.83 µM)
[2]; Streptococcus pneumoniae
  MIC: 0.25 µg/mL (≈ 0.354 µM)
[3]; C203, Oral
  ED50: 87 mg/kg
[3]; C203, sc, Subcutaneous
  ED50: 5.9 mg/kg
[4]; Staphylococcus aureus, V41
  MIC: 1 µg/mL (≈ 1.41 µM)
[5]; Klebsiella pneumoniae
  MIC: 64 µg/mL (≈ 90.5 µM)
[6]
  MIC: 0.25 µg/mL (≈ 0.354 µM)
Escherichia coli EC14; read-out: MIC
  MIC: 32 µg/mL (≈ 45.3 µM)
[7]; [20]
  MIC: 4 µg/mL (≈ 5.66 µM)
[8]
  MIC: 1 µg/mL (≈ 1.41 µM)
[9]; [21]
  MIC: 2 µg/mL (≈ 2.83 µM)
[10]; read-out: MIC
  MIC: 2 µg/mL (≈ 2.83 µM)
[11]
  MIC: 1 µg/mL (≈ 1.41 µM)
Escherichia coli TEM; [22]
  MIC: 8 µg/mL (≈ 11.3 µM)
[12]; [17]
  MIC: 8 µg/mL (≈ 11.3 µM)
[13]; [19]
  MIC: 1 µg/mL (≈ 1.41 µM)
[14]
  MIC: 1 µg/mL (≈ 1.41 µM)
[15]; Streptococcus pneumoniae
  MIC: 4 µg/mL (≈ 5.66 µM)

## CCC1OC(=O)CC(O)C(C)C(OC2OC(C)C(O)C(N(C)C)C2O)C(CCN2CCOCC2)CC(C)C(=O)C=CC(C)=CC1CO (stereo not shown) [Compound 14, 20-DH-DO-20-Morpholino-OMT]
[1]
  MIC: 4 µg/mL (≈ 5.98 µM)
[2]; [16]
  MIC: 0.5 µg/mL (≈ 0.748 µM)
[3]; C203, Oral
  ED50: > 100 mg/kg
[3]; C203, sc, Subcutaneous
  ED50: > 10 mg/kg
Titration pKa; Titration pKa value (first)
  pKa: 6.5
Titration pKa; Titration pKa value (second)
  pKa: 8.4
[4]; [23]
  MIC: 4 µg/mL (≈ 5.98 µM)
[5]; Klebsiella pneumoniae KAE, symbol for not active at 128 mcg/ml, read-out: MIC
  MIC: > 128 µg/mL
[6]
  MIC: 1 µg/mL (≈ 1.5 µM)
Escherichia coli EC14
  MIC: 128 µg/mL (≈ 191 µM)
[7]; [20]
  MIC: 16 µg/mL (≈ 23.9 µM)
[8]
  MIC: 4 µg/mL (≈ 5.98 µM)
[9]; [21]
  MIC: 4 µg/mL (≈ 5.98 µM)
[10]; read-out: MIC
  MIC: 1 µg/mL (≈ 1.5 µM)
[11]; read-out: MIC
  MIC: 2 µg/mL (≈ 2.99 µM)
Escherichia coli TEM; Escherichia coli
  MIC: 64 µg/mL (≈ 95.7 µM)
[12]; [17]
  MIC: 4 µg/mL (≈ 5.98 µM)
[13]; [19]
  MIC: 8 µg/mL (≈ 12 µM)
[14]; read-out: MIC
  MIC: 4 µg/mL (≈ 5.98 µM)

## CCC1OC(=O)CC(O)C(C)C(OC2OC(C)C(O)C(N(C)C)C2O)C(CCN2CCCCCCC2)CC(C)C(=O)C=CC(C)=CC1CN1CCCCCCC1 (stereo not shown) [Compound 15, 20-DH-DO-23-Deoxy-20,23-di(octahydroazocin-1-yl)-OMT]
[1]; read-out: MIC
  MIC: 2 µg/mL (≈ 2.53 µM)
[2]; [16]
  MIC: 0.125 µg/mL (≈ 0.158 µM)
[3]; C203, Oral
  ED50: > 50 mg/kg
[3]; C203, sc, Subcutaneous
  ED50: > 10 mg/kg
Titration pKa; Titration pKa value (first)
  pKa: 6.9
Titration pKa; Titration pKa value (second)
  pKa: 8.05
Titration pKa; Titration pKa value (third), third printed value
  pKa: 8.9
[4]; Staphylococcus aureus, V41
  MIC: 0.5 µg/mL (≈ 0.633 µM)
[5]; [18]
  MIC: 8 µg/mL (≈ 10.1 µM)
[6]
  MIC: 0.25 µg/mL (≈ 0.316 µM)
Escherichia coli EC14; read-out: MIC
  MIC: 4 µg/mL (≈ 5.06 µM)
[7]; [20]
  MIC: 0.5 µg/mL (≈ 0.633 µM)
[8]
  MIC: 0.5 µg/mL (≈ 0.633 µM)
[9]; [21]
  MIC: 1 µg/mL (≈ 1.27 µM)
[10]; read-out: MIC
  MIC: 0.125 µg/mL (≈ 0.158 µM)
[11]; read-out: MIC
  MIC: 0.5 µg/mL (≈ 0.633 µM)
Escherichia coli TEM; [22]
  MIC: 2 µg/mL (≈ 2.53 µM)
[12]; [17]
  MIC: 1 µg/mL (≈ 1.27 µM)
[13]; Staphylococcus aureus, X400
  MIC: 0.5 µg/mL (≈ 0.633 µM)
[14]; read-out: MIC
  MIC: 0.5 µg/mL (≈ 0.633 µM)
[15]; Streptococcus pneumoniae
  MIC: 0.5 µg/mL (≈ 0.633 µM)

## CCC1OC(=O)CC(O)C(C)C(OC2OC(C)C(O)C(N(C)C)C2O)C(CCN2CCCCCC2)CC(C)C(=O)C=CC(C)=CC1C (stereo not shown) [Compound 23]
[1]; read-out: MIC
  MIC: 2 µg/mL (≈ 3.01 µM)
[3]; C203, Oral
  ED50: > 100 mg/kg
[3]; C203, sc, Subcutaneous
  ED50: > 10 mg/kg
[4]; [23]
  MIC: 4 µg/mL (≈ 6.02 µM)
[5]; [18]
  MIC: 128 µg/mL (≈ 193 µM)
[6]
  MIC: 1 µg/mL (≈ 1.5 µM)
Escherichia coli EC14
  MIC: 128 µg/mL (≈ 193 µM)
[7]; [20]
  MIC: 16 µg/mL (≈ 24.1 µM)
[8]
  MIC: 4 µg/mL (≈ 6.02 µM)
[9]; [21]
  MIC: 16 µg/mL (≈ 24.1 µM)
[10]
  MIC: 0.5 µg/mL (≈ 0.752 µM)
[11]; read-out: MIC
  MIC: 2 µg/mL (≈ 3.01 µM)
Escherichia coli TEM; Escherichia coli
  MIC: 8 µg/mL (≈ 12 µM)
[12]; [17]
  MIC: 16 µg/mL (≈ 24.1 µM)
[13]; [19]
  MIC: 8 µg/mL (≈ 12 µM)
[14]; read-out: MIC
  MIC: 4 µg/mL (≈ 6.02 µM)
[15]; Streptococcus pneumoniae Group D X66, read-out: MIC
  MIC: 8 µg/mL (≈ 12 µM)
